Several values for one entry are separate records, joined by “and”; a condition that tells them apart may be missing. Equal entries are not always repeated. ± gives the expanded uncertainty stated by the source.
What was measured:
[1] = molar enthalpy of vaporization or sublimation; conditions: 298.15 K; Crystal; Static calorimetry
[2] = Crystal, Calculated from knudsen effusion weight loss

SMILES | molar enthalpy [1] | vapor or sublimation pressure ([2]; 377.16 K) | vapor or sublimation pressure ([2]; 379.12 K) | vapor or sublimation pressure ([2]; 381.1 K) | vapor or sublimation pressure ([2]; 383.16 K) | vapor or sublimation pressure ([2]; 385.1 K) | vapor or sublimation pressure ([2]; 387.09 K) | vapor or sublimation pressure ([2]; 389.15 K) | vapor or sublimation pressure ([2]; 391.1 K) | vapor or sublimation pressure ([2]; 393.1 K) | vapor or sublimation pressure ([2]; 395.15 K) | vapor or sublimation pressure ([2]; 397.13 K) | vapor or sublimation pressure ([2]; 399.12 K)
Cc1nnc(S)[nH]c1=O [6-aza-2-thiothymine] | 28.7 ± 0.669 kcal/mol |  |  |  |  |  |  |  |  |  |  |  | 
Cc1n[nH]c(=O)[nH]c1=O [6-azathymine] | 26.1 ± 0.55 kcal/mol |  |  |  |  |  |  |  |  |  |  |  | 
O=c1cn[nH]c(=O)[nH]1 [6-azauracil] | 28.2 ± 0.502 kcal/mol | 0.00012 ± 0.0001 kPa and 0.000109 ± 0.0001 kPa | 0.000138 ± 0.0001 kPa and 0.000142 ± 0.0001 kPa and 0.000131 ± 0.0001 kPa | 0.000167 ± 0.0001 kPa and 0.000164 ± 0.0001 kPa | 0.000205 ± 0.0001 kPa and 0.000198 ± 0.0001 kPa and 0.000227 ± 0.0001 kPa | 0.000252 ± 0.0001 kPa and 0.000229 ± 0.0001 kPa and 0.000269 ± 0.0001 kPa | 0.000301 ± 0.0001 kPa and 0.000282 ± 0.0001 kPa | 0.00037 ± 0.0001 kPa and 0.000355 ± 0.0001 kPa and 0.000413 ± 0.0001 kPa | 0.000452 ± 0.0001 kPa and 0.000422 ± 0.0001 kPa and 0.000477 ± 0.0001 kPa | 0.000538 ± 0.0001 kPa and 0.000515 ± 0.0001 kPa and 0.000575 ± 0.0001 kPa | 0.00061 ± 0.0001 kPa and 0.000596 ± 0.0001 kPa and 0.000684 ± 0.0001 kPa | 0.000756 ± 0.0001 kPa and 0.000711 ± 0.0001 kPa and 0.000812 ± 0.0001 kPa | 0.000901 ± 0.00011 kPa and 0.000859 ± 0.00011 kPa and 0.000945 ± 0.00011 kPa

— the NIST ThermoML archive (doi:10.1016/j.jct.2015.12.020)
